From US6855710B2, “Substituted indolines with an inhibitory effect on various kinases and complexes of CDKs” (Boehringer Ingelheim Pharma KG, priority 1998, dated 2005)

Compound	melting point
CC(C)(C)OC(=O)Nc1ccc(N/C(=C2\C(=O)Nc3ccccc32)c2ccccc2)cc1 [Example 28, (Z)-3-[1-(4-tert.butoxycarbonylamino-phenylamino)-1-phenyl-methylidene]-2-indolinone]	244 to 246 °C
CN(CC(=O)O)S(=O)(=O)c1ccc(N/C(=C2\C(=O)Nc3ccc([N+](=O)[O-])cc32)c2ccccc2)cc1 [Example 414, (Z)-3-{1-[4-(N-carboxymethyl-N-methyl-aminosulphonyl)-phenylamino]-1-phenyl-methylidene}-5-nitro-2-indolinone]	259 to 260 °C
CN(C)Cc1ccc(N/C(=C2\C(=O)Nc3ccccc32)c2ccc([N+](=O)[O-])cc2)cc1 [Example 219, (Z)-3-[1-(4-dimethylaminomethyl-phenylamino)-1-(4-nitrophenyl)-methylidene]-2-indolinone]	235 °C
O=C(O)CNC(=O)c1ccc(N/C(=C2\C(=O)Nc3ccccc32)c2ccccc2)cc1 [Example 393, (Z)-3-{1-[4-(carboxymethylaminocarbonyl)-phenylamino]-1-phenyl-methylidene}-2-indolinone]	245 to 247 °C
COC1CCN(Cc2ccc(N/C(=C3\C(=O)Nc4ccc([N+](=O)[O-])cc43)c3ccccc3)cc2)CC1 [Example 171, (Z)-3-{1-[4-(4-methoxypiperidinomethyl)-phenylamino]-1-phenyl-methylidene}-5-nitro-2-indolinone]	204 to 206 °C
C[C@@H](NC(=O)OC(C)(C)C)c1ccc(N/C(=C2\C(=O)Nc3ccc([N+](=O)[O-])cc32)c2ccccc2)cc1 [Example 125, (Z,R)-3-{1-[4-(1-tert.butoxycarbonylamino-ethyl)-phenylamino]-1-phenyl-methylidene}-5-nitro-2-indolinone]	247 to 249 °C
CC(C)(C)OC(=O)NCC(=O)NCc1ccc(N/C(=C2\C(=O)Nc3ccc([N+](=O)[O-])cc32)c2ccccc2)cc1 [Example 144, (Z)-3-[1-(4-tert.butoxycarbonylaminomethylcarbonylaminomethyl-phenylamino)-1-phenyl-methylidene]-5-nitro-2-indolinone]	219 to 221 °C (dec.)
CN(C(=O)CN)c1ccc(N/C(=C2\C(=O)Nc3ccc([N+](=O)[O-])cc32)c2ccccc2)cc1 [Example 139, (Z)-3-{1-[4-(N-aminomethylcarbonyl-N-methyl-amino)-phenyl-amino]-1-phenyl-methylidene}-5-nitro-2-indolinone]	255 to 256 °C
CN(C(=O)CCN)c1ccc(N/C(=C2\C(=O)Nc3ccccc32)c2ccccc2)cc1.Cl	97 to 99 °C
CCN(CC)Cc1ccc(N/C(=C2\C(=O)Nc3ccc([N+](=O)[O-])cc32)c2ccccc2)cc1 [Example 159, (Z)-3-[1-(4-diethylaminomethyl-phenylamino)-1-phenyl-methylidene]-5-nitro-2-indolinone]	173 to 174 °C
O=C1Nc2ccccc2/C1=C(/Nc1ccc(OCCCN2CCCCC2)cc1)c1ccccc1 [Example 287, (Z)-3-{1-[4-(3-piperidinopropyloxy)-phenylamino]-1-phenyl-methylidene}-2-indolinone]	223 to 225 °C
CN(C)CCN(c1ccc(N/C(=C2\C(=O)Nc3ccc([N+](=O)[O-])cc32)c2ccccc2)cc1)S(=O)(=O)Cc1ccccc1 [Example 313, (Z)-3-{1-[4-(N-(2-dimethylaminoethyl)-N-benzylsulphonyl-amino)-phenylamino]-1-phenyl-methylidene}-5-nitro-2-indolinone]	248 °C
O=C1Nc2ccc([N+](=O)[O-])cc2/C1=C(/Nc1ccc(CNCCO)cc1)c1ccccc1 [Example 239, (Z)-3-{1-[4-(2-hydroxy-ethylaminomethyl)-phenylamino]-1-phenyl-methylidene}-5-nitro-2-indolinone]	196 to 198 °C
CNC(=O)C1CCN(Cc2ccc(N/C(=C3\C(=O)Nc4ccc([N+](=O)[O-])cc43)c3ccccc3)cc2)CC1 [Example 248, (Z)-3-{1-[4-(4-methylaminocarbonyl-piperidinomethyl)-phenylamino]-1-phenyl-methylidene}-5-nitro-2-indolinone]	263 to 265 °C
O=C(O)CNS(=O)(=O)c1ccc(N/C(=C2\C(=O)Nc3ccccc32)c2ccccc2)cc1 [Example 407, (Z)-3-{1-[4-(carboxymethylaminosulphonyl)-phenylamino]-1-phenyl-methylidene}-2-indolinone]	236 °C (dec.)
CN(Cc1ccc(N/C(=C2\C(=O)Nc3ccc([N+](=O)[O-])cc32)c2ccccc2)cc1)c1ccccn1 [Example 235, (Z)-3-{1-[4-(N-methyl-N-(2-pyridyl)-aminomethyl)-phenylamino]-1-phenyl-methylidene}-5-nitro-2-indolinone]	213 to 216 °C
O=C1Nc2ccc([N+](=O)[O-])cc2/C1=C(/Nc1ccc(CNc2ccccc2)cc1)c1ccccc1 [Example 233, (Z)-3-{1-[4-(phenylaminomethyl)-phenylamino]-1-phenyl-methylidene}-5-nitro-2-indolinone]	274 to 277 °C
CNCC(=O)NCc1ccc(N/C(=C2\C(=O)Nc3ccc([N+](=O)[O-])cc32)c2ccccc2)cc1.Cl	195 to 198 °C
CN(C)CCNc1ccc(N/C(=C2\C(=O)Nc3ccccc32)c2ccccc2)cc1 [Example 338, (Z)-3-{1-[4-(2-dimethylamino-ethylamino)-phenylamino]-1-phenyl-methylidene}-2-indolinone]	258 to 260 °C
O=C(O)CNCCc1ccc(N/C(=C2\C(=O)Nc3ccc([N+](=O)[O-])cc32)c2ccccc2)cc1 [Example 258, (Z)-3-{1-[4-(2-carboxymethylamino-ethyl)-phenylamino]-1-phenyl-methylidene}-5-nitro-2-indolinone]	242 to 243 °C (dec.)
CN(C)CCN(C)S(=O)(=O)c1ccc(N/C(=C2\C(=O)Nc3ccc([N+](=O)[O-])cc32)c2ccccc2)cc1 [Example 402, (Z)-3-{1-[4-(N-(2-dimethylaminoethyl)-N-methyl-aminosulphonyl)-phenylamino]-1-phenyl-methylidene}-5-nitro-2-indolinone]	215 to 218 °C
O=C(CN1CCOCC1)Nc1ccc(N/C(=C2\C(=O)Nc3ccc([N+](=O)[O-])cc32)c2ccccc2)cc1 [Example 96, (Z)-3-[1-(4-morpholinomethylcarbonylamino-phenylamino)-1-phenyl-methylidene]-5-nitro-2-indolinone]	265 to 267 °C
CCCCN(CCCC)Cc1ccc(N/C(=C2\C(=O)Nc3ccc([N+](=O)[O-])cc32)c2ccccc2)cc1 [Example 165, (Z)-3-[1-(4-Dibutylaminomethyl-phenylamino)-1-phenyl-methylidene]-5-nitro-2-indolinone]	175 °C
N=C(N)c1cccc(N/C(=C2\C(=O)Nc3ccccc32)c2ccccc2)c1 [Example 64, (Z)-3-[1-(3-amidinophenylamino)-1-phenyl-methylidene]-2-indolinone]	235 to 237 °C
Br.COCCNCCc1ccc(N/C(=C2\C(=O)Nc3ccc([N+](=O)[O-])cc32)c2ccccc2)cc1 [Example 257, (Z)-3-{1-[4-(2-(2-methoxyethylamino)-ethyl)-phenylamino]-1-phenyl-methylidene}-5-nitro-2-indolinone-hydrobromide]	297 to 299 °C
